Assay results as given in the NIST ThermoML archive (doi:10.1007/s10765-010-0768-y).
± gives the expanded uncertainty stated by the source.

Assay: xn = mol fraction of the nth substance listed
Conditions: 101 kPa, Liquid, Pycnometric method

C=CC(=O)OCCCC [butyl 2-propenoate] + c1ccccc1
mass density [kg/m3]
Conditions	288.15 K	293.15 K	298.15 K	303.15 K	308.15 K	313.15 K	318.15 K
x1 = 0.0722	887.23 ± 0.22	881.89 ± 0.21	876.56 ± 0.22	871.23 ± 0.23	865.9 ± 0.24	860.57 ± 0.25	855.24 ± 0.26
x1 = 0.142	889.79 ± 0.22	884.48 ± 0.21	879.17 ± 0.22	873.86 ± 0.23	868.56 ± 0.24	863.26 ± 0.25	857.96 ± 0.26
x1 = 0.2062	891.94 ± 0.22	886.65 ± 0.21	881.36 ± 0.22	876.08 ± 0.23	870.8 ± 0.24	865.52 ± 0.25	860.24 ± 0.26
x1 = 0.2794	894.12 ± 0.23	888.87 ± 0.22	883.62 ± 0.23	878.37 ± 0.23	873.12 ± 0.24	867.87 ± 0.25	862.62 ± 0.26
x1 = 0.3586	896.24 ± 0.23	891.02 ± 0.22	885.8 ± 0.23	880.58 ± 0.24	875.36 ± 0.25	870.14 ± 0.26	864.92 ± 0.27
x1 = 0.4363	898.02 ± 0.24	892.83 ± 0.22	887.64 ± 0.23	882.46 ± 0.24	877.28 ± 0.25	872.1 ± 0.26	866.92 ± 0.27
x1 = 0.5074	899.4 ± 0.24	894.25 ± 0.23	889.11 ± 0.24	883.97 ± 0.25	878.83 ± 0.26	873.69 ± 0.27	868.55 ± 0.28
x1 = 0.5818	900.63 ± 0.24	895.53 ± 0.23	890.43 ± 0.24	885.33 ± 0.25	880.23 ± 0.26	875.13 ± 0.27	870.03 ± 0.28
x1 = 0.6423	901.47 ± 0.25	896.4 ± 0.24	891.33 ± 0.24	886.26 ± 0.25	881.2 ± 0.26	876.14 ± 0.27	871.08 ± 0.28
x1 = 0.7226	902.36 ± 0.25	897.34 ± 0.24	892.32 ± 0.25	887.3 ± 0.26	882.29 ± 0.27	877.28 ± 0.28	872.27 ± 0.29
x1 = 0.7902	902.91 ± 0.26	897.94 ± 0.24	892.97 ± 0.25	888 ± 0.26	883.03 ± 0.27	878.07 ± 0.28	873.11 ± 0.29
x1 = 0.8563	903.29 ± 0.26	898.38 ± 0.25	893.47 ± 0.26	888.56 ± 0.27	883.65 ± 0.28	878.75 ± 0.29	873.85 ± 0.3
x1 = 0.9305	903.53 ± 0.27	898.69 ± 0.25	893.85 ± 0.26	889.01 ± 0.27	884.18 ± 0.28	879.35 ± 0.29	874.52 ± 0.3
x1 = 1	903.6 ± 0.27	898.85 ± 0.26	894.1 ± 0.27	889.35 ± 0.28	884.6 ± 0.29	879.85 ± 0.3	875.1 ± 0.31
